From patent US7592345B2, “Piperazine and [1,4]diazepan derivatives as NK antagonists” (Hoffmann-La Roche Inc., priority 2007, dated 2009)
pKi: −log10 of the molar value.

Each molecule was assayed against T1, recombinant human NK3 receptor (Homo sapiens, UniProt P29371) (assay: [3H]SR142801 competition binding assay). Settings: [3H]SR142801, membranes from HEK293 cells transiently expressing recombinant human NK3 receptor; read-out: hNK3 Ki.
T1 construct: expressed in transfected cells; host or cells: HEK293 cells (transient expression), membranes
T1 sequence (P29371 1-465): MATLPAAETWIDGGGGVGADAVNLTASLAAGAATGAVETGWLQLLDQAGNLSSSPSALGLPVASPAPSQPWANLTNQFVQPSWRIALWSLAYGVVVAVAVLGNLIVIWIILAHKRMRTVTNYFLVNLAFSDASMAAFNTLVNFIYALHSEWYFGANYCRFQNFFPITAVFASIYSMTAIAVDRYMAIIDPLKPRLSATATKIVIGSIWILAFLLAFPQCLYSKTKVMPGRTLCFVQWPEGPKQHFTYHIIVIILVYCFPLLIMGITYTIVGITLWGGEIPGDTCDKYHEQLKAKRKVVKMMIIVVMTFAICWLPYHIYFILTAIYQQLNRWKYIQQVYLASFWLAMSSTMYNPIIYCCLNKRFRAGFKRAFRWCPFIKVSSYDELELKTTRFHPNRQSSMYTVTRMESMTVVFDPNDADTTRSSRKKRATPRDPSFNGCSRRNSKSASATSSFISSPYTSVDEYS
Method: [^3H]SR142801 Competition Binding Assay
hNK3 receptor binding experiment were performed using [^3H]SR142801 (Catalog No. TRK1035, specific activity: 74.0 Ci/mmol, Amersham, GE Healthcare UK limited, Buckinghamshire, UK) and membrane isolated from HEK293 cells transiently expressing recombinant human NK3 receptor. After thawing, the membrane homogenates were centrifuged at 48,000×g for 10 min at 4° C., the pellets were resuspended in the 50 mM Tris-HCl, 4 mM MnCl2, 1 μM phosphoramidon, 0.1% BSA binding buffer at pH 7.4 to a final assay concentration of 5 μg protein/well. For inhibition experiments, membranes were incubated with [^3H]SR142801 at a concentration equal to KD value of radioligand and 10 concentrations of the inhibitory compound (0.0003-10 μM) (in a total reaction volume of 500 μl) for 75 min at room temperature (RT). At the end of the incubation, membranes were filtered onto unitfilter (96-well white microplate with bonded GF/C filter preincubated 1 h in 0.3% PEI+0.3% BSA, Packard BioScience, Meriden, Conn.) with a Filtermate 196 harvester (Packard BioScience) and washed 4 times with ice-cold 50 mM Tris-HCl, pH 7.4 buffer. Nonspecific binding was measured in the presence of 10 μM SB222200 for both radioligands. The radioactivity on the filter was counted (5 min) on a Packard Top-count microplate scintillation counter with quenching correction after addition of 45 μl of microscint 40 (Canberra Packard S. A., Zürich, Switzerland) and shaking for 1 h. Inhibition curves were fitted according to the Hill equation: y=100/(1+(x/IC50)^nH), where nH=slope factor using Excel-fit 4 software (Microsoft). IC50 values were derived from the inhibition curve and the affinity constant (Ki) values were calculated using the Cheng-Prussoff equation Ki=IC50/(1+[L]/KD) where [L] is the concentration of radioligand and KD is its dissociation constant at the receptor, derived from the saturation isotherm. All experiments were performed in duplicate and the mean±standard error (SEM) of the individual Ki values was calculated.
With `C[C@@H]1CN(CCC(C)(C(=O)N(C)Cc2ccc(C(F)(F)F)cc2)c2ccc(Cl)c(Cl)c2)CCN1S(C)(=O)=O` (stereo partly drawn) [Example 55, 2-(3,4-Dichloro-phenyl)-4-((R)-4-methanesulfonyl-3-methyl-piperazin-1-yl)-2,N-dimethyl-N-(4-trifluoromethyl-benzyl)-butyramide] the pKi was 7.77.
`Cc1ccc(CN(C)C(=O)C(C)(CCN2CCCN(S(C)(=O)=O)CC2)c2ccc(Cl)c(Cl)c2)cc1` (stereo not drawn) [Example 109, 2-(3,4-Dichloro-phenyl)-4-(4-methanesulfonyl-[1,4]diazepan-1-yl)-2,N-dimethyl-N-(4-methyl-benzyl)-butyramide] was tested, and the pKi was 7.47.
`CC(NC(=O)C(C)(CCN1CCN(S(C)(=O)=O)[C@H](C)C1)c1ccc(Cl)c(Cl)c1)c1ccc(Cl)c(Cl)c1` (stereo partly drawn) [Example 50, 2-(3,4-Dichloro-phenyl)-N-[1-(3,4-dichloro-phenyl)-ethyl]-4-((R)-4-methanesulfonyl-3-methyl-piperazin-1-yl)-2-methyl-butyramide] gave a pKi of 7.59.
`COc1ccc(C(NC(=O)C(C)(CCN2CCN(S(C)(=O)=O)CC2)c2ccc(Cl)c(Cl)c2)C2CC2)cc1` (stereo not drawn) [Example 15, N-[Cyclopropyl-(4-methoxy-phenyl)-methyl]-2-(3,4-dichloro-phenyl)-4-(4-methanesulfonyl-piperazin-1-yl)-2-methyl-butyramide] gave a pKi of 6.63.
Work on `CN(Cc1ccc(-c2ccncc2)cc1)C(=O)C(CCN1CCN(S(C)(=O)=O)CC1)c1ccc(Cl)c(Cl)c1` (stereo not drawn) [Example 2, 2-(3,4-Dichloro-phenyl)-4-(4-methanesulfonyl-piperazin-1-yl)-N-methyl-N-(4-pyridin-4-yl-benzyl)-butyramide] yielded a pKi of 6.50.
Work on `CN(Cc1ccccc1)C(=O)C(CCN1CCN(S(C)(=O)=O)CC1)c1ccc(Cl)c(Cl)c1` (stereo not drawn) [Example 4, N-Benzyl-2-(3,4-dichloro-phenyl)-4-(4-methanesulfonyl-piperazin-1-yl)-N-methyl-butyramide] yielded a pKi of 6.45.
In the case of `CC(CCN1CCN(S(C)(=O)=O)CC1)(C(=O)NCc1ccc(OC(F)(F)F)cc1)c1ccc(Cl)c(Cl)c1` (stereo not drawn) [Example 17, 2-(3,4-Dichloro-phenyl)-4-(4-methanesulfonyl-piperazin-1-yl)-2-methyl-N-(4-trifluoromethoxy-benzyl)-butyramide], the pKi was 6.83.
With `COc1ccc(C(NC(=O)C(C)(CCN2CCN(S(C)(=O)=O)[C@H](C)C2)c2ccc(Cl)c(Cl)c2)C2CC2)cc1` (stereo partly drawn) [Example 32, N-[Cyclopropyl-(4-methoxy-phenyl)-methyl]-2-(3,4-dichloro-phenyl)-4-((R)-4-methanesulfonyl-3-methyl-piperazin-1-yl)-2-methyl-butyramide] the pKi was 7.77.
`C[C@H]1CN(CCC(C)(C(=O)N(C)Cc2ccc(C(F)(F)F)c(F)c2)c2ccc(Cl)c(Cl)c2)CCN1S(C)(=O)=O` (stereo partly drawn) [Example 70, 2-(3,4-Dichloro-phenyl)-N-(3-fluoro-4-trifluoromethyl-benzyl)-4-((S)-4-methanesulfonyl-3-methyl-piperazin-1-yl)-2,N-dimethyl-butyramide] gave a pKi of 7.72.
With `C[C@@H]1CN(CCC(C)(C(=O)N(C)Cc2cccc(Cl)c2)c2ccc(Cl)c(Cl)c2)CCN1S(C)(=O)=O` (stereo partly drawn) [Example 59, N-(3-Chloro-benzyl)-2-(3,4-dichloro-phenyl)-4-((R)-4-methanesulfonyl-3-methyl-piperazin-1-yl)-2,N-dimethyl-butyramide] the pKi was 6.99.
`CN(Cc1ccc(-c2ccncc2)cc1)C(=O)C(C)(CCN1CCCN(S(C)(=O)=O)CC1)c1ccc(Cl)c(Cl)c1` (stereo not drawn) [Example 123, 2-(3,4-Dichloro-phenyl)-4-(4-methanesulfonyl-[1,4]diazepan-1-yl)-2,N-dimethyl-N-(4-pyridin-4-yl-benzyl)-butyramide] gave a pKi of 7.03.
Work on `COc1cccc(CN(C)C(=O)C(C)(CCN2CCN(S(C)(=O)=O)[C@H](C)C2)c2ccc(Cl)c(Cl)c2)c1` (stereo partly drawn) [Example 48, 2-(3,4-Dichloro-phenyl)-4-((R)-4-methanesulfonyl-3-methyl-piperazin-1-yl)-N-(3-methoxy-benzyl)-2,N-dimethyl-butyramide] yielded a pKi of 6.58.
With `C[C@H]1CN(CCC(C)(C(=O)N(C)Cc2ccc(C(F)(F)F)cc2)c2ccc(Cl)c(Cl)c2)CCN1S(C)(=O)=O` (stereo partly drawn) [Example 85, 2-(3,4-Dichloro-phenyl)-4-((S)-4-methanesulfonyl-3-methyl-piperazin-1-yl)-2,N-dimethyl-N-(4-trifluoromethyl-benzyl)-butyramide] the pKi was 7.56.
For `C[C@H]1CN(CCC(C)(C(=O)N(C)Cc2cccc(Cl)c2)c2ccc(Cl)c(Cl)c2)CCN1S(C)(=O)=O` (stereo partly drawn) [Example 88, N-(3-Chloro-benzyl)-2-(3,4-dichloro-phenyl)-4-((S)-4-methanesulfonyl-3-methyl-piperazin-1-yl)-2,N-dimethyl-butyramide], the pKi was 6.97.
Molecule `CN(Cc1ccc(Cl)cc1)C(=O)C(C)(CCN1CCN(S(C)(=O)=O)CC1)c1ccc(Cl)c(Cl)c1` (stereo not drawn) [Example 12, N-(4-Chloro-benzyl)-2-(3,4-dichloro-phenyl)-4-(4-methanesulfonyl-piperazin-1-yl)-2,N-dimethyl-butyramide] has a pKi of 7.18.
In the case of `CC(CCN1CCCN(S(C)(=O)=O)CC1)(C(=O)NCc1ccc(Cl)c(F)c1)c1ccc(Cl)c(Cl)c1` (stereo not drawn) [Example 98, N-(4-Chloro-3-fluoro-benzyl)-2-(3,4-dichloro-phenyl)-4-(4-methanesulfonyl-[1,4]diazepan-1-yl)-2-methyl-butyramide], the pKi was 7.18.
Molecule `CN(Cc1cccc(Cl)c1)C(=O)C(C)(CCN1CCCN(S(C)(=O)=O)CC1)c1ccc(Cl)c(Cl)c1` (stereo not drawn) [Example 103, N-(3-Chloro-benzyl)-2-(3,4-dichloro-phenyl)-4-(4-methanesulfonyl-[1,4]diazepan-1-yl)-2,N-dimethyl-butyramide] has a pKi of 7.38.
Molecule `COc1ccc(CN(C)C(=O)C(C)(CCN2CCCN(S(C)(=O)=O)CC2)c2ccc(Cl)c(Cl)c2)cc1F` (stereo not drawn) [Example 104, 2-(3,4-Dichloro-phenyl)-N-(3-fluoro-4-methoxy-benzyl)-4-(4-methanesulfonyl-[1,4]diazepan-1-yl)-2,N-dimethyl-butyramide] has a pKi of 7.22.
In the case of `CC(CCN1CCN(S(C)(=O)=O)CC1)(C(=O)N[C@@H](CO)c1ccc(F)cc1)c1ccc(Cl)c(Cl)c1` (stereo partly drawn) [Example 132, 2-(3,4-Dichloro-phenyl)-N-[(R)-1-(4-fluoro-phenyl)-2-hydroxy-ethyl]-4-(4-methanesulfonyl-piperazin-1-yl)-2-methyl-butyramide], the pKi was 6.83.
Work on `COc1ccc(C(NC(=O)C(C)(CCN2CCCN(S(C)(=O)=O)CC2)c2ccc(Cl)c(Cl)c2)C2CC2)cc1` (stereo not drawn) [Example 105, N-[Cyclopropyl-(4-methoxy-phenyl)-methyl]-2-(3,4-dichloro-phenyl)-4-(4-methanesulfonyl-[1,4]diazepan-1-yl)-2-methyl-butyramide] yielded a pKi of 6.87.
For `C[C@H]1CN(CCC(C)(C(=O)NCc2ccc(Cl)c(Cl)c2)c2ccc(Cl)c(Cl)c2)CCN1S(C)(=O)=O` (stereo partly drawn) [Example 72, N-(3,4-Dichloro-benzyl)-2-(3,4-dichloro-phenyl)-4-((S)-4-methanesulfonyl-3-methyl-piperazin-1-yl)-2-methyl-butyramide], the pKi was 7.37.
Molecule `CC(CCN1CCN(S(C)(=O)=O)CC1)(C(=O)NCc1cccc(OC(F)F)c1)c1ccc(Cl)c(Cl)c1` (stereo not drawn) [Example 11, 2-(3,4-Dichloro-phenyl)-N-(3-difluoromethoxy-benzyl)-4-(4-methanesulfonyl-piperazin-1-yl)-2-methyl-butyramide] has a pKi of 6.38.
`C[C@H]1CN(CCC(C)(C(=O)NCc2ccc(C(F)(F)F)nc2)c2ccc(Cl)c(Cl)c2)CCN1S(C)(=O)=O` (stereo partly drawn) [Example 91, 2-(3,4-Dichloro-phenyl)-4-((S)-4-methanesulfonyl-3-methyl-piperazin-1-yl)-2-methyl-N-(6-trifluoromethyl-pyridin-3-ylmethyl)-butyramide] gave a pKi of 6.04.
`C[C@H]1CN(CCC(C)(C(=O)N(C)Cc2ccc(Cl)c(C(F)(F)F)c2)c2ccc(Cl)c(Cl)c2)CCN1S(C)(=O)=O` (stereo partly drawn) [Example 69, N-(4-Chloro-3-trifluoromethyl-benzyl)-2-(3,4-dichloro-phenyl)-4-((S)-4-methanesulfonyl-3-methyl-piperazin-1-yl)-2,N-dimethyl-butyramide] gave a pKi of 7.94.
